Values of other authors, collected in patent US20090092668A1, “ACETAMINOPHEN FORMULATION FOR JOINT PAIN RELIEF” (priority 2006, published 2009).

Columns and labels:
[1] = one subject

CS(C)(=O)=O [MSM, Methylsulfonylmethane]
pain status ([1]; ¼-½ tsp. daily for about 16 months): substantially pain-free life
pain relief ([1]; ½ tsp. daily in diet, by the end of the second week): almost total pain relief

N[C@H]1C(O)O[C@H](CO)[C@@H](O)[C@@H]1O (stereo partly drawn) [glucosamine]
excreted as exhaled carbon dioxide (of the absorbed glucosamine): 65%
excreted in the urine (of the absorbed glucosamine): 25%
remaining in the tissues (of the absorbed glucosamine): 10%
absorbed from the small intestine (sulfate form): over 90%
